Experimental data from patent US5336762A, “Polychelating agents for image and spectral enhancement (and spectral shift)” (priority 1991, dated 1994).

Experiments:
[1] = cited from earlier work
[2] = In vitro T1 relaxation of water protons (IBM PC20 Minispectrometer, 20 MHz); assay type: physicochemical
Description: Fe^+3 as the dextran-iron oxide (in which the iron is complexed loosely to the hydroxyl groups of dextran), was obtained as "Proferdex" (20% iron, w/w) (Fisons Pharmaceuticals) and tested, both before and after extensive dialysis (to remove loosely bound iron), for NMR T1-enhancing activity in vitro (using an IBM PC20 Minispectrometer, 20 MHz).

[3] = test system: liver; assay: Liver T1 decrease in mice; assay type: in vivo; details: usual 30-minute imaging interval; 0.10 to 0.30 mmoles/kg
[4] = test system: liver, kidney, bone marrow; assay: In vivo MR imaging of normal tissues, Sprague-Dawley rats (0.35 Tesla)
Description: (§2) Sprague-Dawley rats were imaged using a 0.35-Tesla, Diasonics clinical MR imaging system and a 30-cm rf coil. Three clinically relevant pulse sequences were used: 1) spin-echo with a TR of 0.5 seconds (for T1-weighted images), 2) inversion-recovery (IR) (for T1-weighted images), and 3) spin-echo with a TR of 2.0 seconds (for T2-weighted images). Diasonics software was used to calculate the area-averaged tissue intensities before and after injection of contrast agents. Dual pulse sequences (spin-echo, with TR's of 0.5 and 1.5 seconds or 1.0 and 2.0 seconds) were also used to calculate the in vivo T1 relaxation times. At the conclusion of imaging, the liver, spleen and kidneys were excised and their T1 (IR) and T2 (Carr-Purcell-Meiboom-Gill) relaxation times were determined at 37° C., using an IBM PC20 Minispectrometer. For these in vitro experiments, uninjected rats were used in place of preinjection controls.
Post-contrast images were obtained serially beginning immediately after the i.v. injection of contrast agents and continuing for several hours thereafter.

[5] = test system: spleen; assay: T1 of freshly excised rat spleens; assay type: in vivo, Sprague-Dawley rats; details: 30 min post vs. pre
Description: as §2

[6] = test system: 7777-strain Morris hepatoma; assay: MR imaging of Morris hepatoma (7777) in Buffalo rats; assay type: in vivo, Buffalo-strain rats; details: after injection
Method: After two to three weeks the local tumors had reached an average diameter of 0.5 and 1.0 cm. The rats were then imaged both before and after i.v. injections of Gd-DTPA or microsphere Gd-DTPA. MR imaging was performed in a 30cm rf coil with a 0.35 Tesla, Diasonics clinical MRI system (as described above). Post-contrast images were obtained serially beginning immediately after injection and continuing for several hours thereafter.

[7] = test system: blood in heart chambers; assay: T1-weighted blood flow images of cardiac chambers; assay type: in vivo, Sprague-Dawley rats; details: comparable Gd dose
Method: Gd:DTPA-dextran microspheres (at 0.3 mmoles Gd/kg) were injected i.v. at time zero into Sprague-Dawley rats and images were obtained immediately and serially each 5 minutes×4 (spin-echo, multi-echo, TR=0.5 and 1.5).

[8] = test system: liver, kidney; assay: Proton T1 relaxation times in mouse organs (Example 18a); assay type: in vivo, CBA mice; details: 30 min; Gd dose 0.23 mmol/kg (DEAE forms), 0.47 (dimeglumine)
Method: Test materials were injected i.v. into 25 gm CBA mice. At 30 min the mice were sacrificed by decapitation (exsanguination) and the excised livers and kidneys assessed for changes in proton T1 relaxation times (20 MHz; IR pulse sequence). Doses of test materials were made equivalent based on in vitro potency (ID50 analysis).

[9] = test system: liver, kidney, bone marrow; assay: In vivo MR imaging T1 in rats (Example 18b); set-up: species or system Sprague-Dawley rats; details: Gd 0.30 (soluble), 0.15 (microspheres), 0.30 (dimeglumine) mmol/kg; ~30 min
Method: (§1) Test materials were injected intravenously into 500 gm Sprague-Dawley rats. At approximately 30 minutes, the rats were placed in the head coil of a 0.35 Tesla clinical imaging device (Diasonics Corp.), and T1-weighted images (using both a spin-echo pulse sequence at TR's of 0.5, 1.5 and 2.0, and an inversion recovery sequence) were obtained on image slices of 0.5 cm thickness taken through the liver and kidneys. T1 relaxation times were determined from the TR=0.5 and 2.0 data using area-averaging of signal intensities and a proprietary software program for calculations. At the completion of imaging, the rats were sacrificed by decapitation (exsanguination). Their livers, kidneys and spleens were excised, tested for in vitro correlations with the in vivo changes in proton T1 relaxation times and then placed in buffered formalin fixative for histopathologic evaluation.

[10] = test system: liver, spleen, kidney; assay: In vitro T1 of excised rat organs (Example 18b); assay type: in vivo, Sprague-Dawley rats; details: same doses
Method: as §1

[11] = test system: BRO human melanoma; assay: MR imaging of human BRO melanoma in nude mice; assay type: in vivo, Swiss-strain nude mice bearing human melanoma
Method: These studies are performed using the rapidly proliferating, amelanotic, BRO human melanoma grown to a weight of 2.0-6.0 gms in the axillary soft tissues of Swiss-strain nude mice. The amelanotic nature of the tumor avoids any potential for alteration of unenhanced tissue-relaxation times by naturally occurring paramagnetic substances which have been described for pigmented melanomas. The axillary location of tumors allows imaging of the tumor and liver in adjacent slices. This shortens the imaging time for each group of mice and provides maximal anatomic separation of tumors from the higher-intensity kidneys and bladder. MR imaging is performed on a Diasonics 0.35T instrument, using a 30-cm rf coil, and a T1-weighted spin-echo pulse sequence (TR 500, TE 40). Pentobarbital is used for animal anesthesia in order to avoid drug modulation of image intensities. T1 relaxation were performed on the freshly excised organs. In general, these T1's decreased in proportion to increased image intensities. […] The new soluble polymeric agent had the following advantages: […]

[12] = cited from earlier work; remark: listed apart in the source
[13] = test system: human brain tumors; details: preliminary studies; cited from earlier work
[14] = 30 min post vs. pre, Gd 0.3 mmoles/kg dimeglumine, 0.009 mmoles/kg microspheres

O=C(O)CN1CCN(CC(=O)O)CCN(CC(=O)O)CCN(CC(=O)O)CC1 [DOTA, 1,4,7,10-tetraazacyclododecane-N,N',N"-tetraacetic acid]
relaxivity, times that of Gd-DTPA ([1]; wide range of Larmor frequencies): approximately 2 times

O=[N+]([O-])[O-].O=[N+]([O-])[O-].O=[N+]([O-])[O-].[Fe+3] [Ferric nitrate]
R1 relaxivity ([2]; Table 1, iron compounds): 1.476 mmol⁻¹ s⁻¹

CNC[C@H](O)[C@@H](O)[C@H](O)[C@H](O)CO.CNC[C@H](O)[C@@H](O)[C@H](O)[C@H](O)CO.O=C([O-])CN(CCN(CC(=O)[O-])CC(=O)O)CCN(CC(=O)[O-])CC(=O)O.[Gd+3] [Gd:DTPA dimeglumine]
ID50 (total weight), concentration reducing T1 to 50% of buffered saline ([2]; 20 MHz, phosphate-buffered saline): 84 µg/mL | changes in liver T1 [3]: minimal changes in liver Tl's | % decrease in T1, kidney [4, 14]: 55.7% | % decrease in T1, liver [4, 14]: 24.6% | time after which all liver enhancement was lost ([4]; rat, in vivo): 50 min | % decrease in T1 of spleen [5]: 14.4% | time by which contrast was significantly reduced [6]: ≤ 1.5 h | enhancement of blood flow images [7]: almost completely ineffective | T1 (% of control), kidney [8]: 24% | T1 (% of control), liver [8]: 83% | T1 (% of control), in vivo, kidney [9]: 57% | T1 (% of control), in vivo, liver [9]: 83% | T1 (% of control), in vitro, liver ([10]; control 275 msec): 88% | T1 (% of control), in vitro, spleen ([10]; control 464 msec): 86% | T1 (% of control), in vitro, kidney ([10]; control 492 msec): 25% | enhancement of BRO melanoma ([11]; 0.03 mmols Gd per kg): barely perceptible | dose required for enhancement, higher than 0.03 mmols Gd per kg ([11]; in vivo): 1/2 | clearance half-time from bloodstream and tumors ([12]; in vivo): 20 min | sequestered in the kidneys ([12]; intravenous): > 90% | relaxivity at higher radio frequencies ([1]; typically 15 MHz): marked decrease in relaxivity | enhancement of human brain tumors [13]: almost all human brain tumors undergo significant enhancement

[Cl][Gd]([Cl])[Cl] [GdCl3]
R1 (in vitro T1 relaxivity) ([2]; physiologic saline): 3.03 mM⁻¹ s⁻¹
